Measurements as given in patent US20080026074A1, “Method of short term skin wrinkles correction using strontium divalent ion” (priority 2006, published 2008).

Tests used:
[1] = taken orally, long term use; cited from earlier work
[2] = system: photoaged skin; experiment: topical application of strontium ion in a carrier to skin; type: in vivo; conditions: carrier e.g. distillate of orange flower petals (neroli floral water), within minutes of application
Experimental: The epidermal ridges are less pronounced, an effect that may be related to relaxation of erector muscles.
This effect lasted for about 4 hours.

[Sr+2] [strontium ion]
toxicity [1]: toxicity is not a problem | effect on skin texture [2]: changes the texture of photoaged skin, resulting in a more youthful complexion
